Reference: patent US10273237B2, “Imidazopyridazine compounds useful as modulators of IL-12, IL-23 and/or IFN-α responses” (BRISTOL-MYERS SQUIBB COMPANY, priority 2013, dated 2019)

How the values were obtained:
[1] = test system: IFNα-stimulated Kit225 T cells with STAT-dependent luciferase reporter; experiment: Kit225 T cell assay, STAT-dependent luciferase reporter, IFNα stimulated; type: cell-based, human; conditions: Homo sapiens, KIT225, 200 U/mL human recombinant IFNα, 5-6 hours, read-out: IFNa Kit225 Reporter, LE (IC50)
In short: (§1)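 Kit225 T cells carrying a stably integrated STAT-dependent luciferase reporter, in RPMI with 10% heat-inactivated FBS, stimulated with 20 ng/mL human recombinant IL-23 or 200 U/mL human recombinant IFNα for 5-6 h. Luciferase expression read by Steady-Glo luminescence.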

[2] = test system: IL-23-stimulated Kit225 T cells with STAT-dependent luciferase reporter; experiment: Kit225 T cell assay, STAT-dependent luciferase reporter, IL-23 stimulated; type: cell-based, human; conditions: Homo sapiens, KIT225, 20 ng/mL human recombinant IL-23, 5-6 hours, read-out: IL-23 Kit225 Reporter, LE (IC50)
In short: as §1

[3] = target: T1, His-tagged protein corresponding to amino acids 575-869 of human Tyk2 (Homo sapiens, UniProt P29597); experiment: Probe displacement assay (scintillation proximity, radiolabeled probe); type: binding; conditions: 2.5 nM Tyk2 (575-869), 40 nM [3H] probe, 30 minutes at room temperature
T1 construct: made in house
T1 sequence (P29597 with tags, fused parts or gaps): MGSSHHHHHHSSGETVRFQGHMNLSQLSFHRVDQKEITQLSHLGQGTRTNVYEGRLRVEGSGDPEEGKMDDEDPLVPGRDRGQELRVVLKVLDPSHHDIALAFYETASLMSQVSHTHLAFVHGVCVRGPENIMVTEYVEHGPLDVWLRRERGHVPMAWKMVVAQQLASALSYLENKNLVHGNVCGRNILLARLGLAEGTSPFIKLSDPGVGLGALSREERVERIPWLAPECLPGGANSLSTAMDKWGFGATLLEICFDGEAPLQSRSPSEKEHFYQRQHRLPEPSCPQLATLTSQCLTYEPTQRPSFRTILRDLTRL
Procedure: The preparation of radiolabeled probe, (R)—N-(1-(3-(8-methyl-5-(methylamino)-8H-imidazo[4,5-d]thiazolo[5,4-b]pyridin-2-yl)phenyl)ethyl)-2-([^3H]methylsulfonyl)benzamide, was performed as described below: […]

Compound	IC50 [1] [nM]	IC50 [2] [nM]	EC50 [3] [nM]
CNc1cc(Nc2cccn(-c3ccc(C(F)F)cc3)c2=O)nn2c(C(=O)NCC(C)(C)CO)cnc12 [Example 124]	80	150	4
CNc1cc(Nc2cccn(-c3cccc(C#N)c3)c2=O)nn2c(C(=O)NC3CC3)cnc12 [Example 126]	190	300	8
CNc1cc(Nc2cccn(-c3ccc(C(F)(F)F)cc3)c2=O)nn2c(C(=O)NCC(C)(CO)CO)cnc12 [Example 132]	320	400	14
CNc1cc(Nc2cccn(-c3ccc(C(F)(F)F)cc3)c2=O)nn2c(C(=O)NCC3(CO)CC3)cnc12 [Example 133]	200	430	19
CNc1cc(Nc2cccn(-c3ccc(C(F)(F)F)cc3)c2=O)nn2c(C(=O)NCC(C)(C)CO)cnc12 [Example 136]	80	170	11
CNc1cc(Nc2cccn(-c3ccc(N4CCOCC4)cc3)c2=O)nn2c(C(=O)NC3(C#N)CC3)cnc12 [Example 140]	150	190	14
CNc1cc(Nc2cccn(-c3cccc(F)n3)c2=O)nn2c(C(=O)N[C@@H]3C[C@@H]3F)cnc12 [Example 145]	10	30	5
CNc1cc(Nc2cccn(-c3cc(C)n(C)n3)c2=O)nn2c(C(=O)NC3CCC3)cnc12 [Example 155]	20	30	7
CNc1cc(Nc2cccn(C3(C)CC3)c2=O)nn2c(C(=O)NCC(C)(C)CO)cnc12 [Example 163]	70	240	8
CNc1cc(Nc2ccnn(-c3ccccc3)c2=O)nn2c(C(=O)N[C@@H]3C[C@@H]3F)cnc12 [Example 180]	20	50	17
CCC(CC)CNC(=O)c1cnc2c(NC)cc(Nc3cccn(-c4ccccc4)c3=O)nn12 [Example 187]	380	220	29
CNc1cc(Nc2cccn(-c3ccccc3)c2=O)nn2c(C(=O)N[C@H]3CCCC[C@H]3O)cnc12 [Example 188]	230	70	21
CNc1cc(Nc2cccn(-c3ccccn3)c2=O)nn2c(C(=O)NCc3nccs3)cnc12 [Example 190]	290	260	23
CNc1cc(Nc2cccn(-c3ccccn3)c2=O)nn2c(C(=O)NCC(C)(C)CO)cnc12 [Example 197]	60	60	16
CNc1cc(Nc2cccn(-c3ccc(S(C)(=O)=O)cc3)c2=O)nn2c(C(=O)NC3CC3)cnc12 [Example 202]	330	350	8
CNc1cc(Nc2cccn(C)c2=O)nn2c(C(=O)NC(C)(C)C)cnc12 [Example 211]	490	360	57
CNc1cc(Nc2cccn(C)c2=O)nn2c(C(=O)NCC3CCC3)cnc12 [Example 214]	810	360	73
CNc1cc(Nc2cccn(C3CCN(C(=O)c4ncc[nH]4)CC3)c2=O)nn2c(C(=O)NC3CC3)cnc12 [Example 245]	260	290	7
